Assay results: patent publication USRE37781E1, “Substituted cyclic carbonyls and derivatives thereof useful as retroviral protease inhibitors” (DuPont Pharmaceuticals Company, priority 1991, dated 2002)
Read-outs that look alike come from different tables or passages of the source.

Target: single-chain tethered dimer of HIV protease (Human immunodeficiency virus 1, UniProt P04585)
Test: biochemical
Type: biochemical
Parameters: fused on or other part: A second copy of the same protease unit is joined to the first by a short peptide tether, giving one polypeptide
Protocol: HIV Protease Inhibition Assay—HPLC Method
Active protease was prepared as described therein by extraction with 67% acetic acid, dilution 33-fold with water, dialysis against water and then against a “refolding buffer” consisting of 20 mM MES, 1 mM dithiothreitol and 10% glycerol. Protease was stored as a stock preparation at 10 uM in refolding buffer.
Substrate: Peptide of sequence: aminobenzoyl-Ala-Thr-His-Gln-Val-Tyr-Phe(NO2)-Val-Arg-Lys-Ala containing p-nitrophenylalanine, was prepared by solid phase synthesis as previously described Cheng et al., op.cit. Stock solutions of 2 mM substrate were prepared in DMSO.
Inhibitory compounds were dissolved in sufficient DMSO to make 3 mM stock solutions. All further dilutions were prepared in “assay buffer”: 1M NaCl, 50 mM MES, pH 5.5, 1 mM EDTA, 1 mM DTT, […] glycerol.
Enzyme reaction: In a 2 ml screw-cap centrifuge tube were added 50 ul protease (final concentration 0.25 nM) and 0.1 ml inhibitory compound (final concentration […]). After 15 min preincubation at room temperature, the reaction was started with the addition of 0.05 ml substrate (final concentration 5 uM). Incubation was carried out at 30 C. for 1 hr. The reaction was stopped with 1 ml 0.1M ammonium hydroxide.
HPLC measurement of product formation: The product (aminobenzoyl-Ala-Thr-His-Gln-Val-Tyr) was separated from substrate on a Pharmacia MonoQ anion exchange column. The injection volume was 0.2 ml. The mobile phases were: A (20 mM trisHCl, pH 9.0, 0.02% sodium Azide, 10% acetonitrile), B (20 mM tris HCl, pH 9.0, 0.02% sodium azide, 0.5M ammonium formate, 10% acetonitrile). The mobile phases were pumped at 1 ml/min, with a gradient from 0 to 30% B in 5 min, 100% B for 4 min to wash the column, and a re-equilibration for 4 min. The retention time of the product was 3.6 min. Detection with a Shimadzu model RF535 fluorescence monitor was at 330 nm (excitation) and 430 (emission).

[1] = Table 2d, HIV protease inhibition, HPLC method, read-out: HPLC K1
[2] = read-out: HPLC K1, HIV protease inhibition, HPLC method, Table 2d
[3] = Table 2d, class symbols, read-out: HPLC K1
[4] = read-out: HPLC K1, Table 2d, class symbols
[5] = HIV protease inhibition, HPLC method, Table 2d, read-out: HPLC K1
[6] = read-out: HPLC Ki, Table 1d, lower part

CC(C)C1C(O)C(O)C(C(C)C)N(CC2CC2)C(=O)N1CC1CC1 (centres unmarked) [Example 16D]
Ki (read-out: K4 HPLC, Table 2e): 0.01 to 1 µM

O=C(NCc1cccnc1)c1cccc(CN2C(=O)N(CC3CC3)C(Cc3ccccc3)C(O)C(O)C2Cc2ccccc2)c1 (centres unmarked) [15YD]
Ki [1]: < 0.01 µM

C=CCCCC1C(O)C(O)C(CCCC=C)N(CC=C)C(=O)N1CC=C (centres unmarked) [Example 16AR]
Ki (Table 2e, read-out: K4 HPLC): > 1 µM

O=C1N(CCCCCN2CCOCC2)C(Cc2ccccc2)C(O)C(O)C(Cc2ccccc2)N1CCCCCN1CCOCC1 (centres unmarked) [15FM]
Ki [2]: > 1 µM

C=CCN1C(=O)N(CC=C)C(CCCCCCCC)C(O)C(O)C1CCCCCCCC (centres unmarked) [Example 16AP]
Ki (Table 2e, read-out: K4 HPLC): 0.01 to 1 µM

C=CCN1C(=O)N(CC=C)C(C)C(O)C(O)C1C (centres unmarked) [Example 16E]
Ki (read-out: K4 HPLC, Table 2e): > 1 µM

O=C1N(CC2CC2)C(Cc2ccc3ccccc3c2)C(O)C(O)C(Cc2ccc3ccccc3c2)N1CC1CC1 (centres unmarked) [16L]
Ki (Table 2e, read-out: K4 HPLC): < 0.01 µM

O=C1N(Cc2ccccc2)C(CCc2ccccc2)C(O)C(O)C(CCc2ccccc2)N1Cc1ccccc1 (centres unmarked) [Example 16A]
Ki (read-out: K4 HPLC, Table 2e): 0.01 to 1 µM

O=C1N(Cc2cccc(-c3nc4ccccc4[nH]3)c2)C(Cc2ccccc2)C(O)C(O)C(Cc2ccccc2)N1Cc1cccc(-c2nc3ccccc3[nH]2)c1 (centres unmarked) [15AX]
Ki [1]: 0.01 to 1 µM

C=CCN1C(=O)N(CC=C)C(Cc2ccc(OC)cc2)C(O)C(O)C1Cc1ccc(OC)cc1 (centres unmarked) [20AL]
Ki (Table 2i, read-out: HPLC Ki): < 0.01 µM

O=C1N(Cc2ccccc2)[C@H](Cc2ccc(O)cc2)[C@H](O)[C@@H](O)[C@@H](Cc2ccc(O)cc2)N1Cc1ccccc1 [20AK]
Ki (Table 2i, read-out: HPLC Ki): < 0.01 µM

O=C1N(CC2CC2CO)C(Cc2ccccc2)C(O)C(O)C(Cc2ccccc2)N1CC1CC1CO (centres unmarked) [Example 12L]
Ki [3]: > 1 µM

O=C1N(Cc2ccccc2)C(Cc2ccccc2)C(O)C(O)C(Cc2ccccc2)N1Cc1ccccc1 (centres unmarked) [Example 13Y]
Ki [4]: > 1 µM

COc1cccc(CN2C(=O)N(Cc3cccc(OC)c3)C(Cc3ccccc3OC)C(O)C(O)C2Cc2ccccc2OC)c1 (centres unmarked) [Example 16R]
Ki (Table 2e, read-out: K4 HPLC): 0.01 to 1 µM

Cc1cncc(OCc2ccccc2)c1CN1C(=O)N(Cc2c(C)cncc2OCc2ccccc2)C(Cc2ccccc2)C(O)C(O)C1Cc1ccccc1 (centres unmarked) [Example 14J]
Ki [3]: 0.01 to 1 µM

CCCCCC#CCN1C(=O)N(CC#CCCCCC)C(Cc2ccccc2)C(O)C(O)C1Cc1ccccc1 (centres unmarked) [Example 14E]
Ki [4]: 0.01 to 1 µM

O=C1NC(Cc2ccccc2)C(O)C(O)C(Cc2ccccc2)N1CC1CC1c1ccccc1 (centres unmarked) [Example 14I]
Ki [3]: 0.01 to 1 µM

O=C1N(CC2CC2)C(Cc2ccc(F)cc2)C(O)C(O)C(Cc2ccc(F)cc2)N1CC1CC1 (centres unmarked) [20H]
Ki (read-out: HPLC Ki, Table 2i): < 0.01 µM

C=CCN1C(=O)N(CC=C)C(CCc2ccccc2)C(O)C(O)C1CCc1ccccc1 (centres unmarked) [Example 16B]
Ki (read-out: K4 HPLC, Table 2e): > 1 µM

CC1C(O)C(O)C(C)N(Cc2ccccc2)C(=O)N1Cc1ccccc1 (centres unmarked) [Example 16G]
Ki (read-out: K4 HPLC, Table 2e): > 1 µM

CSc1ccc(CC2C(O)C(O)C(Cc3ccc(SC)cc3)N(Cc3ccccc3)C(=O)N2Cc2ccccc2)cc1 (centres unmarked) [Example 16Q]
Ki (Table 2e, read-out: K4 HPLC): < 0.01 µM

C=CCN1C(=O)N(CC=C)C(C(C)C)C(O)C(O)C1C(C)C (centres unmarked) [Example 16C]
Ki (read-out: K4 HPLC, Table 2e): 0.01 to 1 µM

O=C(NC(Cc1ccccc1)C(=O)Nc1cccc(CN2C(=O)N(Cc3cccc(NC(=O)C(Cc4ccccc4)NC(=O)OCc4ccccc4)c3)C(Cc3ccccc3)C(O)C(O)C2Cc2ccccc2)c1)OCc1ccccc1 (centres unmarked) [15T]
Ki [3]: < 0.01 µM

O=C1N(Cc2ccc(CO)o2)C(Cc2ccccc2)C(O)C(O)C(Cc2ccccc2)N1Cc1ccc(CO)o1 (centres unmarked) [15FY]
Ki [5]: 0.01 to 1 µM

COC(=O)c1ccc(CN2C(=O)N(Cc3ccc(C(=O)OC)cc3)C(Cc3ccc(OC)cc3)C(O)C(O)C2Cc2ccc(OC)cc2)cc1 (centres unmarked) [20AI]
Ki (Table 2i, read-out: HPLC Ki): > 1 µM

C=CC(=C)CN1C(=O)N(CC(=C)C=C)C(Cc2ccccc2)C(O)C(O)C1Cc1ccccc1 (centres unmarked) [Example 15FX]
Ki [2]: 0.01 to 1 µM

C=CCN1C(=O)N(CC=C)C(CCCCCC)C(O)C(O)C1CCCCCC (centres unmarked) [Example 16AQ]
Ki (Table 2e, read-out: K4 HPLC): > 1 µM

O=C1N(CC2CC2c2ccccc2)C(Cc2ccccc2)C(O)C(O)C(Cc2ccccc2)N1CC1CC1c1ccccc1 (centres unmarked) [Example 14H]
Ki [3]: 0.01 to 1 µM

COc1ccc(CC2C(O)C(O)C(Cc3ccc(OC)cc3)N(Cc3ccccc3)C(=O)N2Cc2ccccc2)cc1 (centres unmarked) [20AG]
Ki (Table 2i, read-out: HPLC Ki): < 0.01 µM

O=C1NC(Cc2ccccc2)C(O)C(O)C(Cc2ccccc2)N1CC1CC1CCCO (centres unmarked) [Example 13A]
Ki [3]: 0.01 to 1 µM

C=CCN1C(=O)N(CCCC)C(C)C(O)C(O)C1C (centres unmarked) [Example 16F]
Ki (Table 2e, read-out: K4 HPLC): > 1 µM

O=C1NC(Cc2ccccc2)C(O)C(O)C(Cc2ccccc2)N1Cc1ccco1 (centres unmarked) [Example 15FV]
Ki [5]: < 0.01 µM

CC(C)CC1C(O)C(O)C(CC(C)C)N(Cc2ccccc2)C(=O)N1Cc1ccccc1 (centres unmarked) [Example 16Z]
Ki (Table 2e, read-out: K4 HPLC): 0.01 to 1 µM

O=C1NC(Cc2ccccc2)C(O)C(O)C(Cc2ccccc2)N1CC1CC1CCO (centres unmarked) [Example 12Z]
Ki [3]: 0.01 to 1 µM

O=C1N(Cc2coc(CO)c2)C(Cc2ccccc2)C(O)C(O)C(Cc2ccccc2)N1Cc1coc(CO)c1 (centres unmarked) [Example 15FP]
Ki [5]: < 0.01 µM

O=C1N(Cc2cccc(-c3cc[nH]n3)c2)C(Cc2ccccc2)C(O)C(O)C(Cc2ccccc2)N1Cc1cccc(-c2cc[nH]n2)c1 (centres unmarked) [Example 15XO]
Ki [1]: < 0.01 µM

O=C1N(Cc2cccc(O)c2)C(Cc2ccc(F)cc2)C(O)C(O)C(Cc2ccc(F)cc2)N1Cc1cccc(O)c1 (centres unmarked) [Example 20G]
Ki (read-out: HPLC Ki, Table 2i): < 0.01 µM

CN1CCN(CCCN2C(=O)NC(Cc3ccccc3)C(O)C(O)C2Cc2ccccc2)CC1 (centres unmarked) [15AP]
Ki [1]: > 1 µM

O=C1N(Cc2ccc(CO)cc2)[C@H](CCc2ccccc2)[C@@H](O)[C@@H](Cc2ccccc2)N1Cc1ccc(CO)cc1 [Example 8M]
Ki (read-out: Ki (HPLC), Table 1e, cells marked (HPLC)): < 0.01 µM

CCCCN1C(=O)N(CCCC)C(CC(C)C)C(O)C(O)C1CC(C)C (centres unmarked) [Example 16AE]
Ki (read-out: K4 HPLC, Table 2e): 0.01 to 1 µM

O=C(NCCN1CCOCC1)c1cccc(CN2C(Cc3ccccc3)C(O)C(O)C(Cc3ccccc3)N(Cc3cccc(C(=O)NCCN4CCOCC4)c3)S2(=O)=O)c1 (centres unmarked) [23Z]
Ki (Table 2m, read-out: HPLC Ki): 0.01 to 1 µM

C=CCCCC1C(O)C(O)C(CCCC=C)N(Cc2ccccc2)C(=O)N1Cc1ccccc1 (centres unmarked) [Example 16AL]
Ki (Table 2e, read-out: K4 HPLC): > 1 µM

CCCCC1C(O)C(O)C(CCCC)N(Cc2ccc(CO)cc2)C(=O)N1Cc1ccc(CO)cc1 (centres unmarked) [Example 16AT]
Ki (Table 2e, read-out: K4 HPLC): 0.01 to 1 µM

CCOC(=O)COc1cccc(CC2C(O)C(O)C(Cc3cccc(OCC(=O)OCC)c3)N(CC3CC3)C(=O)N2CC2CC2)c1 (centres unmarked) [20AV]
Ki (Table 2i, read-out: HPLC Ki): 0.01 to 1 µM

COC1C(O)C(Cc2ccccc2)N(CC2CC2)C(=O)N(CC2CC2)C1Cc1ccccc1 (centres unmarked) [Example 7AE]
Ki [6]: 0.01 to 1 µM

CC(C)CC1C(O)C(O)C(CC(C)C)N(Cc2ccccc2)C(=O)N1Cc1ccccc1 (centres unmarked) [Example 16AD]
Ki (read-out: K4 HPLC, Table 2e): < 0.01 µM

O=C1NC(Cc2ccccc2)C(O)C(O)C(Cc2ccccc2)N1Cc1ccc2[nH]nnc2c1 (centres unmarked) [15DM]
Ki [1]: < 0.01 µM

O=C1N(Cc2ccccc2)C(Cc2ccccc2)C(O)C(O)C(Cc2ccccc2)N1Cc1ccccc1 (centres unmarked) [Example 13Q]
Ki [4]: > 1 µM

O=C1N(CC2CC2)C(Cc2ccccc2)C(OCc2ccccc2)C(OCc2ccccc2)C(Cc2ccccc2)N1CC1CC1 (centres unmarked) [Example 7AG]
Ki [6]: > 1 µM

O=C1N(Cc2ccc3nnn(O)c3c2)C(Cc2ccccc2)C(O)C(O)C(Cc2ccccc2)N1Cc1ccc2nnn(O)c2c1 (centres unmarked) [15CU]
Ki [1]: 0.01 to 1 µM

ON=C1N(Cc2ccccc2)C(Cc2ccccc2)C(O)C(O)C(Cc2ccccc2)N1Cc1ccccc1 (centres unmarked) [Example 17A]
Ki (Table 2f, read-out: HPLC Ki): 0.01 to 1 µM | Ki (second table headed Table 2f, read-out: HPLC Ki): 0.01 to 1 µM | Ki (third table headed Table 2f, read-out: HPLC Ki): 0.01 to 1 µM

COc1ccc(CC2C(O)C(O)C(Cc3ccc(OC)cc3)N(Cc3ccc(CO)cc3)C(=O)N2Cc2ccc(CO)cc2)cc1 (centres unmarked) [20AJ]
Ki (Table 2i, read-out: HPLC Ki): < 0.01 µM

CSCCC1C(O)C(O)C(CCSC)N(CC2CC2)C(=O)N1CC1CC1 (centres unmarked) [Example 16AB]
Ki (Table 2e, read-out: K4 HPLC): > 1 µM

CON=C1C(O)C(Cc2ccccc2)N(CC2CC2)C(=O)N(CC2CC2)C1Cc1ccccc1 (centres unmarked) [Example 7AC]
Ki [6]: 0.01 to 1 µM
